Experimental findings from patent US20260193271A1, “PAN-KRAS INHIBITOR COMPOUND” (ADLAI NORTYE BIOPHARMA CO., LTD., priority 2022, published 2026) are described below.

One test has as its system AsPC-1 (G12D). As to the kind of experiment: In vitro cell proliferation inhibition test (CellTiter-Glo), AsPC-1. The format is cell-based. The settings on record: KRAS (p.G12D), 72 h co-incubation. From the text: (§1) Test Example 1: In Vitro Cell Proliferation Inhibition Test
(§2) Due to the diversity of RAS mutations and in order to evaluate the activity of compounds in different RAS mutation cell lines, we selected KRAS^WT, KRAS^G12C, KRAS^G12D, KRAS^G12V and BRAF mutation cell lines (see the table below) for in vitro activity evaluation and screening of compounds.
(§3) Protocol: CellTiter-Glo® Cell Luminescent Viability Assay (Promega)
(§4) According to the doubling time of different cell lines, different numbers of cells (1000-5000 cells/well) were seeded in 96-well plates containing 180 μl of corresponding culture medium and cultured overnight in a cell culture incubator at 37° C. with 5% CO2. On the second day, the test compound was pre-diluted 3-fold with culture medium, with the highest concentration being 100 μM, for a total of 10 concentration gradients; then 20 μl of culture medium containing different concentrations of the compound was added to the cells in the 96-well plate to ensure that the final concentration of the compound was up to 10 μM, with 10 concentration gradients of 3-fold dilution. After the cells and compounds were co-incubated for 72 h, the 96-well plate was removed from the incubator and equilibrated at room temperature for 30 min. Then, 25 μl of CellTiter-Glo® Reagent was added to each well and mixed thoroughly. The mixture was incubated at room temperature for 10 min, and then 100 μl of the sample was transferred to a white 96-well plate (OptiPlate™-96, PerkinElmer). The […] signal value was read using a multi-function microplate reader (SpectraMax® i3x, Molecular devices). The signal values were then standardized, and the curve was fitted using a four-parameter regression equation to calculate the half maximal inhibitory concentration (IC50) of the compound on the cell line.

A further test has as its system SW480 (G12V). As to the kind of experiment: In vitro cell proliferation inhibition test (CellTiter-Glo), SW480. The format is cell-based. Particulars: Homo sapiens, SW480 colon cell line, KRAS (p.G12V), 72 h co-incubation.
Text: as §1, §2, §3, §4

The mark [1] stands for this setting: Homo sapiens, ASPC1, AsPC-1 pancreas cell line.

Take `CCn1c(-c2cc(-c3ccc(CN4CCOCC4)cc3)cnc2[C@H](C)OC)c2c3cc(ccc31)-c1csc(n1)C[C@H](NC(=O)[C@H]1[C@H](C)[C@@H]1C)C(=O)N1CCC[C@H](N1)C(=O)OCC(C)(C)C2` (atropisomer, axis not shown) [Compound 1, (1r,2R,3S)-N-((6^3S,4S,Z)-1^1-ethyl-1^2-(2-((S)-1-methoxyethyl)-5-(4-(morpholinomethyl)phenyl)pyridin-3-yl)-10,10-dimethyl-5,7-dioxo-6^1,6^2,6^3,6^4,6^5,6^6-hexahydro-1^1H-8-oxa-2(4,2)-thiazola-1(5,3)-indola-6(1,3)-pyridazinacycloundecaphane-4-yl)-2,3-dimethylcyclopropane-1-carboxamide]: the concentration for half-maximal inhibition (IC50) was determined as 1.1 nM with AsPC-1 (G12D) (setting [1]) and 1.3 nM in the test on SW480 (G12V).

With `CCn1c(-c2cc(-c3ccc4c(c3)CN(C)C4)cnc2[C@H](C)OC)c2c3cc(ccc31)-c1csc(n1)C[C@H](NC(=O)[C@H]1C[C@@H]1C)C(=O)N1CCC[C@H](N1)C(=O)OCC(C)(C)C2` (atropisomer, axis not shown) [Compound 2, (1S,2S)-N-((6^3S,4S,Z)-1^1-ethyl-1^2-(2-((S)-1-methoxyethyl)-5-(2-methylisoindolin-5-yl)pyridin-3-yl)-10,10-dimethyl-5,7-dioxo-6^1,6^2,6^3,6^4,6^5,6^6-hexahydro-1^1H-8-oxa-2(4,2)-thiazola-1(5,3)-indola-6(1,3)-pyridazinacycloundecaphane-4-yl)-2-methylcyclopropane-1-carboxamide], the IC50 was 21 nM with AsPC-1 (G12D) (setting [1]) and 670 nM with SW480 (G12V).

As for `CCn1c(-c2cc(-c3ccc4c(c3)CCN(C)C4)cnc2[C@H](C)OC)c2c3cc(ccc31)-c1csc(n1)C[C@H](NC(=O)[C@H]1[C@H](C)[C@@H]1C)C(=O)N1CCC[C@H](N1)C(=O)OCC(C)(C)C2` (atropisomer, axis not shown) [Compound 3, (1r,2R,3S)-N-((6^3S,4S,Z)-1^1-ethyl-1^2-(2-((S)-1-methoxyethyl)-5-(2-methyl-1,2,3,4-tetrahydroisoquinolin-6-yl)pyridin-3-yl)-10,10-dimethyl-5,7-dioxo-6^1,6^2,6^3,6^4,6^5,6^6-hexahydro-1^1H-8-oxa-2(4,2)-thiazola-1(5,3)-indola-6(1,3)-pyridazinacycloundecaphane-4-yl)-2,3-dimethylcyclopropane-1-carboxamide], the IC50 in the test on AsPC-1 (G12D) (setting [1]) was 0.18 nM; in the test with SW480 (G12V), 0.33 nM. With `CCn1c(-c2cc(-c3cccc(CN(C)C)c3)cnc2[C@H](C)OC)c2c3cc(ccc31)-c1csc(n1)C[C@H](NC(=O)[C@H]1[C@H](C)[C@@H]1C)C(=O)N1CCC[C@H](N1)C(=O)OCC(C)(C)C2` (atropisomer, axis not shown) [Compound 4, (1r,2R,3S)-N-((6^3S,4S,Z)-1^2-(5-(3-((dimethylamino)methyl)phenyl)-2-((S)-1-methoxyethyl)pyridin-3-yl)-1^1-ethyl-10,10-dimethyl-5,7-dioxo-6^1,6^2,6^3,6^4,6^5,6^6-hexahydro-1^1H-8-oxa-2(4,2)-thiazola-1(5,3)-indola-6(1,3)-pyridazinacycloundecaphane-4-yl)-2,3-dimethylcyclopropane-1-carboxamide], the values for the half-inhibitory concentration (IC50) with AsPC-1 (G12D) (setting [1]) and in the test with SW480 (G12V) were 2.6 nM and 1.6 nM, respectively.

Turning to `CCn1c(-c2cc(-c3ccc(CN4CCOCC4)nc3)cnc2[C@H](C)OC)c2c3cc(ccc31)-c1csc(n1)C[C@H](NC(=O)[C@H]1C[C@@H]1C)C(=O)N1CCC[C@H](N1)C(=O)OCC(C)(C)C2` (atropisomer, axis not shown) [Compound 5, (1S,2S)-N-((6^3S,4S,Z)-1^1-ethyl-1^2-(6-((S)-1-methoxyethyl)-6′-(morpholinomethyl)-[3,3′-bipyridin]-5-yl)-10,10-dimethyl-5,7-dioxo-6^1,6^2,6^3,6^4,6^5,6^6-hexahydro-1^1H-8-oxa-2(4,2)-thiazola-1(5,3)-indola-6(1,3)-pyridazinacycloundecaphane-4-yl)-2-methylcyclopropane-1-carboxamide], the IC50 in the test with AsPC-1 (G12D) (setting [1]) worked out at 6 nM; in the test on SW480 (G12V), 10 nM. Consider `CCn1c(-c2cc(-c3ccc(CN4CC[C@@H](F)C4)cc3)cnc2[C@H](C)OC)c2c3cc(ccc31)-c1csc(n1)C[C@H](NC(=O)[C@H]1C[C@@H]1C)C(=O)N1CCC[C@H](N1)C(=O)OCC(C)(C)C2` (atropisomer, axis not shown) [Compound 6, (1S,2S)-N-((6^3S,4S,Z)-1^1-ethyl-1^2-(5-(4-(((R)-3-fluoropyrrolidin-1-yl)methyl)phenyl)-2-((S)-1-methoxyethyl)pyridin-3-yl)-10,10-dimethyl-5,7-dioxo-6^1,6^2,6^3,6^4,6^5,6^6-hexahydro-1^1H-8-oxa-2(4,2)-thiazola-1(5,3)-indola-6(1,3)-pyridazinacycloundecaphane-4-yl)-2-methylcyclopropane-1-carboxamide], for which the IC50 stood at 13 nM in the test with AsPC-1 (G12D) (setting [1]) and 23 nM in the test with SW480 (G12V). On the same counts, the results for `CCn1c(-c2cc(-c3ccc(CN4CCC(F)(F)CC4)cc3)cnc2[C@H](C)OC)c2c3cc(ccc31)-c1csc(n1)C[C@H](NC(=O)[C@H]1C[C@@H]1C)C(=O)N1CCC[C@H](N1)C(=O)OCC(C)(C)C2` (atropisomer, axis not shown) [Compound 7, (1S,2S)-N-((6^3S,4S,Z)-1^2-(5-(4-((4,4-difluoropiperidin-1-yl)methyl)phenyl)-2-((S)-1-methoxyethyl)pyridin-3-yl)-1^1-ethyl-10,10-dimethyl-5,7-dioxo-6^1,6^2,6^3,6^4,6^5,6^6-hexahydro-1^1H-8-oxa-2(4,2)-thiazola-1(5,3)-indola-6(1,3)-pyridazinacycloundecaphane-4-yl)-2-methylcyclopropane-1-carboxamide] are 128 nM and 159 nM. `CCn1c(-c2cc(-c3cc(C4COCCN4C)on3)cnc2C(C)OC)c2c3cc(ccc31)-c1csc(n1)CC(NC(=O)C1C(C)C1C)C(=O)N1CCCC(N1)C(=O)OCC(C)(C)C2` [Compound 33′, (1r,2R,3S)-N-((6^3S,4S,Z)-1^1-ethyl-1^2-(2-((S)-1-methoxyethyl)-5-(5-((R)-4-methylmorpholin-3-yl)isoxazol-3-yl)pyridin-3-yl)-10,10-dimethyl-5,7-dioxo-6^1,6^2,6^3,6^4,6^5,6^6-hexahydro-1^1H-8-oxa-2(4,2)-thiazola-1(5,3)-indola-6(1,3)-pyridazinacycloundecaphane-4-yl)-2,3-dimethylcyclopropane-1-carboxamide]: in the test with AsPC-1 (G12D) (AsPC-1 pancreas cell line), the IC50 came out at 32 nM. As to `CCn1c(-c2cc(-c3cc(C4(C)CN(C)C4)on3)cnc2C(C)OC)c2c3cc(ccc31)-c1csc(n1)CC(NC(=O)C1C(C)C1C)C(=O)N1CCCC(N1)C(=O)OCC(C)(C)C2` [Compound 34′, (1r,2R,3S)-N-((6^3S,4S,Z)-1^2-(5-(5-(1,3-dimethylazetidin-3-yl)isoxazol-3-yl)-2-((S)-1-methoxyethyl)pyridin-3-yl)-1^1-ethyl-10,10-dimethyl-5,7-dioxo-6^1,6^2,6^3,6^4,6^5,6^6-hexahydro-1^1H-8-oxa-2(4,2)-thiazola-1(5,3)-indola-6(1,3)-pyridazinacycloundecaphane-4-yl)-2,3-dimethylcyclopropane-1-carboxamide], in the test on AsPC-1 (G12D) (AsPC-1 pancreas cell line), the IC50 is 116 nM. Turning to “(1S,2S)-N-((6^3S,4S,Z)-1^1-ethyl-1^2-(2-((S)-1-methoxyethyl)-5-(1-(2-morpholinoethyl)-1H-pyrazol-4-yl)pyridin-3-yl)-10,10-dimethyl-5,7-dioxo-6^1,6^2,6^3,6^4,6^5,6^6-hexahydro-1^1H-8-oxa-2(4,2)-thiazola-1(5,3)-indola-6(1,3)-pyridazinacycloundecaphane-4-yl)-2-methylcyclopropane-1-carboxamide [Compound 15′]”, the IC50 with AsPC-1 (G12D) (AsPC-1 pancreas cell line) came out at 1020 nM. The same measure, in the same setting: with “(1S,2S)-N-((6^3S,4S,Z)-1^1-ethyl-1^2-(2-((S)-1-methoxyethyl)-5-(5-(1-methylazetidin-3-yl)isoxazol-3-yl)pyridin-3-yl)-10,10-dimethyl-5,7-dioxo-6^1,6^2,6^3,6^4,6^5,6^6-hexahydro-1^1H-8-oxa-2(4,2)-thiazola-1(5,3)-indola-6(1,3)-pyridazinacycloundecaphane-4-yl)-2-methylcyclopropane-1-carboxamide [Compound 31′]” the figure was 53 nM; with “(1S,2S)-N-((6^3S,4S,Z)-1^1-ethyl-1^2-(2-((S)-1-methoxyethyl)-5-(5-(1-methylpiperidin-4-yl)isoxazol-3-yl)pyridin-3-yl)-10,10-dimethyl-5,7-dioxo-6^1,6^2,6^3,6^4,6^5,6^6-hexahydro-1^1H-8-oxa-2(4,2)-thiazola-1(5,3)-indola-6(1,3)-pyridazinacycloundecaphane-4-yl)-2-methylcyclopropane-1-carboxamide [Compound 30′]”, 60 nM.
